Assay results as given in patent US20210283163A1, “COMPOSITIONS AND METHODS FOR THE TREATMENT OF ACUTE AND CHRONIC PRURITIS” (Duke University, priority 2018, published 2021).
Read-outs that look alike come from different tables or passages of the source.

Assays:
[1] = tested on: mice; assay: Evans blue extravasation, neurogenic inflammation in a hind paw; assay type: in vivo, mouse; details: intraplantar, 10 μL; capsaicin 1 mM, AITC 5 mM, miR-711 1 mM
Description: Evans Blue Extravasation. To examine neurogenic inflammation in a hind paw (Han et al., Neuron 2016, 92, 1279-1293), mice were anesthetized with 5% isoflurane. Evans blue (50 mg/kg body weight) was given intravenously 10 min before neurogenic irritant application. […] Evans blue was extracted from the tissues by incubation in 400 μL formamide at 37° C. for 48 hr. Evans blue was quantified by measuring the optical density of the formamide extract at 620 nm. Absorbance was normalized to per gram of tissue weight.

[2] = tested on: naive mice; assay type: in vivo, mouse
Description: (§1) Behavioral Assessment for Scratching (Itch) and Wiping (Pain). Mice were shaved on the cheek or nape after a brief anesthesia with isoflurane. Before experiments, mice were habituated in small plastic chambers (14×18×12 cm) daily for two days. The room temperature and humidity remained stable for all the experiments. […] After the injection, the number of scratches in 60 min was counted. A scratch was counted when a mouse lifted its hind paw to scratch the shaved region and returned the paw to the floor or to the mouth. A bout of wiping was defined as a continuous wiping movement with a forepaw directing at the area of the injection area (Shimada and LaMotte, Pain 2008, 139, 681-687). Scratching and wiping behavior was videoed for 30 min or 60 min using Sony HDR-CX610 camera. The video was subsequently played back offline and the numbers of scratches and wipes were quantified in a blinded manner.

[3] = tested on: mice; assay: Pain tests for mechanical and thermal sensitivity after intraplantar injection; assay type: in vivo, mouse; details: miR-711 1 mM, AITC 10 mM, 10 μL
Description: Pain Tests for Mechanical and Thermal Sensitivity. Mice were habituated to the environment for at least 2 days before the testing. All the behaviors were tested blindly. […] For testing mechanical sensitivity, we confined mice in boxes (14×18×12 cm) placed on an elevated metal mesh floor and stimulated their hind paws with a series of von Frey hairs with logarithmically increasing stiffness (0.16-2.00 g, Stoelting), presented perpendicularly to the central plantar surface. We determined the 50% paw withdrawal threshold by Dixon's up-down method (Dixon, Annu. Rev. Pharmacol. Toxicol. 1980, 20, 441-462). Thermal sensitivity was tested using Hargreaves radiant heat apparatus (Hargreaves et al., Pain 1988, 32, 77-88) (IITC Life Science). For the radiant heat test, the basal paw withdrawal latency was adjusted to 10-15 s, with a cutoff of 25 s to prevent tissue damage.

[4] = tested on: CTCL mice; assay: Mouse CTCL xenograft model of chronic itch; assay type: in vivo; details: given 20 days after Myla cell inoculation; for effect on CTCL-evoked chronic itch: hsa-miR-711 inhibitor 100 μM, HC030031 200 μM, A967079 50 μM, peptides 2 mM
Description: Mouse CTCL Xenograft Model of Chronic Itch. We developed a murine xenograft model of cutaneous T cell lymphoma (CTCL) using immune-deficient mice (NOD.CB17-Prkdcscid, 8-10 weeks old, male). CD4^+ MyLa cell line was purchased from Sigma (Ca #95051032). The cell line was established from a plaque biopsy of a person with mycosis fungoides stage II by inclusion of IL-2 and IL-4 in the culture medium. CTCL was generated via intradermal injection of CD4^+ Myla cells (1×10^5 cells/μl, 100 μL) on the nape of the neck. Tumor growth was assessed for 40 days by measurements of tumor diameters.
as §1
Generation of Myla Stable Cell Line Expressing miR-711 Inhibitor. CD4^+ Myla cells were plated at a density of 2×10^5 cells/mL in 2 mL culture media in 6-well plates. For each well, 20 μL of the MISSION Lenti microRNA Inhibitor (hsa-miR-711) lentivirus (Sigma) with a titer of 2.6×10^7 Tu/mL were added. Cell mixtures were incubated at 37° C. for 48 hr, washed with PBS three times, and re-suspended in fresh culture media, and 24 hr later, 1 μg/mL puromycin was added to the cells to select stably transduced cell populations. We tried to grow and passage the cells as much as necessary (usually 3 days) and maintained selection pressure by keeping 1 μg/mL puromycin in the medium. After 4 weeks, a large number of the cells were killed; the remaining cells retained the expression of the plasmid, which stably integrates into the genome of the targeted cells. These cells were used for inoculation to generate the CTCL model for testing the effects of miR-711 inhibitor on chronic itch and tumor growth.

[5] = tested on: mice; assay: Persistent itch after intradermal adenovirus (AV) overexpression of hsa-miR-711; assay type: in vivo, mouse; details: 10 days after the AV injection, A-967079 50 μM, hsa-miR-711 inhibitor 100 μM, blocking peptide 2 μM
Description: as §1
miRNA Measurement by Quantitative Real-Time RT-PCR (qPCR). Total RNA was isolated from serum of CTCL mice or adenovirus-treated mice using Qiazol Lysis Reagent (QIAGEN) together with miRNeasy Serum/Plasma Kit (Park et al., Neuron 2014, 82, 47-54). All RNA samples were immediately used or kept at −80° C. until further processing. To convert mature miRNA into cDNA, 6 μl of total RNA solution were reverse transcribed using the miScript II RT Kit (including polyadenylation of miRNAs and reverse transcription using an oligo-dT that binds to a universal RT-sequence). Specific miRNA levels were quantified by qPCR using miScript SYBR Green Kit including miScript miRNA assay for hsa-miR-711, hsa-miR21, hsamiR155, and hsa-miR-326, together with the universal RT primer, according to the manufacturer's protocol (CFX96 Real-Time system, Bio-Rad). Relative quantities of miRNAs were calculated using the Ct value after normalization to control miRNAs. Caenorhabditis elegans miRNA-39 (cel-miRNA-39) was included as spiked-in control for extracellular miRNA.

[6] = high concentrations, 5 and 10 mM, 5 μL
[7] = low concentrations, 10 and 100 μM

C=CCN=C=S [AITC]
neurogenic inflammation in hind paws (Evans blue test) [1]: elicited robust neurogenic inflammation | scratching after intradermal cheek injection [2, 6]: not scratching | wiping after intradermal cheek injection [2, 6]: induced wiping | itch after intradermal cheek injection [2, 7]: mild itch | pain after intradermal cheek injection [2, 7]: no pain | scratching (itch) after intradermal cheek injection ([2]; naive mice, 1 mM, 5 μL): induced both scratching and wiping | wiping (pain) after intradermal cheek injection ([2]; naive mice, 1 mM, 5 μL): induced both scratching and wiping | heat hyperalgesia [3]: elicited marked hyperalgesia and allodynia | mechanical allodynia [3]: elicited marked hyperalgesia and allodynia

CCC(=N\O)/C(C)=C/c1ccc(F)cc1 [A967079, (1E,3E)-1-(4-Fluorophenyl)-2-methyl-1-pentene-3-one oxime]
effect on CTCL-evoked chronic itch [4]: suppressed | effect on hsa-miR-711 AV-induced persistent itch [5]: Inhibition

miR-711: mmu-miR-711: gggacccggggagagauguaag (SEQ ID NO: 5) (GGGACCCGGGGAGAGAUGUAAG; chemistry not given here)
neurogenic inflammation in hind paws (Evans blue test) [1]: failed to elicit neurogenic inflammation | scratching after intradermal cheek injection ([2]; 0.01 and 0.1 mM): mild but significant scratching | miR-711-induced pruritus in knockout mice ([2]; Tlr7−/− mice versus WT): unaltered | miR-711-induced acute itch in knockout mice ([2]; Trpa1−/− mice versus WT): abrogated | pain (wiping) after intradermal cheek injection ([2]; all the concentrations tested): failed to evoke pain (wiping) | onset (latency) of pruritus ([2]; compared with chloroquine (CQ) and histamine, first 60 sec): very rapid, with a shorter latency | scratching after intradermal cheek injection ([2]; highest dose, 5 mM, 5 μL): 395.2±32.8 bouts per hour | scratching (itch) after intradermal cheek injection ([2]; naive mice, 1 mM, 5 μL): evoked marked scratching | scratching (itch) after intradermal cheek injection ([2]; naive mice, 1 mM, 5 μL, listed as mmu-miR-711): able to evoke pruritus | heat hyperalgesia [3]: failed to induce | mechanical allodynia [3]: failed to induce

NH2-FRNELAYPVLTFGQL-COOH (H-FRNELAYPVLTFGQL-OH) [blocking peptide]
duration of reduction of CTCL-evoked chronic itch ([4]; 2 mM): more than 5 hr | effect on CTCL-evoked chronic itch [4]: effectively reduced | effect on hsa-miR-711 AV-induced persistent itch [5]: Inhibition
